The values below come from PMC6271259, “Design, Synthesis and SAR Study of Novel Trisubstituted Pyrimidine Amide Derivatives as CCR4 Antagonists” (Molecules, 2014).

As usually defined, the IC50 is the point on the concentration scale where inhibition reaches its midpoint. A lower IC50 goes with greater potency. In general, melting point refers to the temperature of the solid-liquid transition.

For one data set, the target named is T1, CCR4 (Homo sapiens, UniProt P51679).
T1 construct: expressed in transfected cells; host or cells: L1.2 cells transfected with pcDI-CCR4
T1 sequence (P51679 1-360): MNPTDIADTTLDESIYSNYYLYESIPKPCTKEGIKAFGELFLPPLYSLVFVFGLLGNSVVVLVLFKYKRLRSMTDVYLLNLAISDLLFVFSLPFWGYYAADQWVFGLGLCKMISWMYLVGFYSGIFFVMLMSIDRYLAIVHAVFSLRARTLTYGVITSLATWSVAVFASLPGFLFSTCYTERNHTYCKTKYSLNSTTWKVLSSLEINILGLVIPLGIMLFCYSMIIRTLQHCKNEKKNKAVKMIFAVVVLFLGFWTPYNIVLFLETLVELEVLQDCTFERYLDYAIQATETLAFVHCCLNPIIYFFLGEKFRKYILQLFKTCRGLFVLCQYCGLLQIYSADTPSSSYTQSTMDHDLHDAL
The data set can be described thus: CCR4-MDC chemotaxis inhibition assay (48-well Boyden chamber, L1.2 cells transfected with pcDI-CCR4). As to conditions: for IC50: MDC 10 ng/mL, L1.2 cells transfected with pcDI-CCR4, compound preincubation 30 min at 37 °C, chamber 6 h, assayed three times, NA = no significant inhibition; for Chemotaxis inhibition activity against CCR4 (in words, compared with compound 1): CCR4-MDC chemotaxis inhibition assay, compound 1 as positive control. It counts as cell-based. As to the method:
All the newly synthesized compounds were evaluated by a CCR4-MDC chemotaxis inhibition assay. Compound 1 was employed as the positive control.
The quantitative chemotaxis assays were performed using 48-well Boyden chambers (Neutroprobe, Bethesda, MD, USA) with polyvinylpyrrolidone-free polycarbonate filters with 5 μm pores. The MDC (Peprotech, Rocky Hill, NJ, USA) with a final concentration of 10 ng/mL was added into the lower wells. The L1.2 cells that were transfected with pcDI-CCR4 were suspended in assay buffer at 3 × 10^6 cells/mL, incubated with various final concentrations of compounds for 30 min at 37 °C, and then added to the upper wells. The chamber was incubated for 6 h at 37 °C in an atmosphere containing 5% CO2, and then the upper chambers were removed. The chemotaxis buffer in the lower wells was then harvested and mixed with 25 μL of the luciferase-containing reagent, Cell-Titer Glo. The number of L1.2 cells in the lower well medium was measured with a Veritas Microplate Luminometer (Turner BioSystems, Sunnyvale, CA, USA). All samples were assayed three times. The negative control samples and solvent control samples were defined as the cells migrating toward the lower wells in the absence of chemokine, and as the cells migrating toward the MDC-containing lower wells in the absence of compound in the presence of DMSO, respectively. The percentage of inhibition was determined by the following equation: inhibition = (C − A)/(C − B) × 100%, where A indicates the number of cells in the sample, B indicates the number of cells in the negative control sample and C indicates the number of cells in the solvent control sample. The results are expressed as an IC50 value (sample concentration that inhibits 50% chemotaxis) and calculated using Origin 8.0 software.

Another data set deals with CCR4-positive cells. Also noted: method as in earlier work. Conditions: migration induced by MDC, TARC, and CKLF1; cited from earlier work.

Take `O=C([C@H]1CCCCN1)N1CCN(c2nc(Cl)cc(NCc3ccc(Cl)cc3Cl)n2)CC1` [Compound 1]: half-maximal inhibition at CCR4 (IC50) was put at 78 ± 13 nM. Besides, in the data set with CCR4-positive cells, the “Inhibition of migration of CCR4-positive cells” value is reported as “inhibit the migration of CCR4-positive cells”.

With `O=C(c1ccccn1)N1CCN(c2nc(Cl)cc(NCc3ccc(Cl)cc3Cl)n2)CC1` [Compound 6a, 6-Chloro-2-[4-(pyridin-2-yl)carbonylpiperazino]-N-(2,4-dichlorobenzyl)pyrimidin-4-amine], the “Chemotaxis inhibition activity against CCR4 (in words, compared with compound 1)” value at CCR4 is recorded as “did not result in significant inhibition activity”.

In turn, `O=C(C1CCCCC1)N1CCN(c2nc(Cl)cc(NCc3ccc(Cl)cc3Cl)n2)CC1` [Compound 6b, 6-Chloro-2-(4-cyclohexylcarbonylpiperazino)-N-(2,4-dichlorobenzyl)pyrimidin-4-amine] came in with a melting point of 175.3 to 177.1 °C. At CCR4, the “Chemotaxis inhibition activity against CCR4 (in words, compared with compound 1)” value is “did not result in significant inhibition activity”.

In turn, `CN(C)CC(=O)N1CCN(c2nc(Cl)cc(NCc3ccc(Cl)cc3Cl)n2)CC1` [Compound 6c, 6-Chloro-2-[4-(N,N-dimethylaminomethyl)carbonylpiperazino]-N-(2,4-dichlorobenzyl)pyrimidin-4-amine] displayed a melting point of 166.5 to 168.5 °C. This compound also showed an IC50 against CCR4 of 64 ± 15 nM.

Turning to `O=C([C@H]1CCCCN1)N1CCN(c2nc(Cl)cc(NCc3ccc(Cl)cc3)n2)CC1` [Compound 6d, (R)-6-Chloro-2-[4-(piperidin-2-yl)carbonylpiperazino]-N-(4-chlorobenzyl)pyrimidin-4-amine], on CCR4, the “Chemotaxis inhibition activity against CCR4 (in words, compared with compound 1)” value is given as “significantly reduced activity” and the 50% inhibitory concentration (IC50) amounted to 458 ± 51 nM.

Regarding `O=C([C@H]1CCCCN1)N1CCN(c2nc(Cl)cc(NCc3ccc(F)cc3F)n2)CC1` [Compound 6e], the melting point lay within 87.2 to 89 °C. For the same compound, on CCR4, the “Chemotaxis inhibition activity against CCR4 (in words, compared with compound 1)” value was “slightly reduced activity” and 94 ± 17 nM corresponded to half-maximal inhibition (IC50).

`O=C([C@H]1CCCCN1)N1CCN(c2nc(NCc3ccc(Cl)cc3Cl)cc(N3CCCCC3)n2)CC1` [Compound 7a, (R)-2-[4-(Piperidin-2-yl)carbonylpiperazino]-N-(2,4-dichlorobenzyl)-6-piperidino pyrimidin-4-amine]: on CCR4, the “Chemotaxis inhibition activity against CCR4 (in words, compared with compound 1)” value is “relatively poorer activity” and the 50% inhibitory concentration (IC50) was 133 ± 21 nM.

`O=C([C@H]1CCCCN1)N1CCN(c2nc(NCc3ccc(Cl)cc3Cl)cc(N3CCOCC3)n2)CC1` [Compound 7b, (R)-2-[4-(Piperidin-2-yl)carbonylpiperazino]-N-(2,4-dichlorobenzyl)-6-morpholino pyrimidin-4-amine] came in with a melting point of 167.8 to 169.5 °C. Moreover, on CCR4, the “Chemotaxis inhibition activity against CCR4 (in words, compared with compound 1)” value is given as “relatively poorer activity” and it took 395 ± 66 nM to reach half-maximal inhibition (IC50).

`Cc1cc(NCc2ccc(Cl)cc2Cl)nc(N2CCN(C(=O)[C@H]3CCCCN3)CC2)n1` [Compound 12a, (R)-2-[4-(Piperidin-2-yl)carbonylpiperazino]-N-(2,4-dichlorobenzyl)-6-methylpyrimidin-4-amine] had a melting point of 82.6 to 84.5 °C. On CCR4, this compound displayed an IC50 of 77 ± 13 nM.

For `Cc1cc(NCc2ccc(Cl)cc2Cl)nc(N2CCN(C(=O)CN(C)C)CC2)n1` [Compound 12b, 2-[4-(N,N-dimethylaminomethyl)carbonylpiperazino]-N-(2,4-dichlorobenzyl)-6-methyl pyrimidin-4-amine], the midpoint of inhibition on CCR4, the IC50, lay at 69 ± 15 nM.

The compound `Cc1cc(NCc2ccc(Cl)cc2Cl)nc(N2CCN(C(=O)C3CCN(C)CC3)CC2)n1` [Compound 12c, 2-[4-(N-methylpiperidin-4-yl)carbonylpiperazino]-N-(2,4-dichlorobenzyl)-6-methylpyrimidin-4-amine] gave a melting point of 146.4 to 148 °C. For the same compound, at CCR4, the “Chemotaxis inhibition activity against CCR4 (in words, compared with compound 1)” value was “relatively weak activity” and the IC50 was 178 ± 28 nM.

For `Cc1cc(NCc2ccc(Cl)cc2Cl)nc(N2CCN(C(=O)[C@H]3CCCO3)CC2)n1` [Compound 12d, (R)-2-[4-(Tetrahydrofuran-2-yl)carbonylpiperazino]-N-(2,4-dichlorobenzyl)-6-methylpyrimidin-4-amine], the melting point fell in the range of 124.3 to 125.8 °C. At CCR4, the “Chemotaxis inhibition activity against CCR4 (in words, compared with compound 1)” value is reported as “relatively weak activity” and the 50% inhibitory concentration (IC50) worked out at 235 ± 45 nM.
